Molecular target: T1, Kv4.2 (Homo sapiens, UniProt Q9NZV8)
T1 construct: expressed in transfected cells; host or cells: Xenopus laevis oocytes (cRNA injection, pRAT vector)
T1 sequence (Q9NZV8 1-630): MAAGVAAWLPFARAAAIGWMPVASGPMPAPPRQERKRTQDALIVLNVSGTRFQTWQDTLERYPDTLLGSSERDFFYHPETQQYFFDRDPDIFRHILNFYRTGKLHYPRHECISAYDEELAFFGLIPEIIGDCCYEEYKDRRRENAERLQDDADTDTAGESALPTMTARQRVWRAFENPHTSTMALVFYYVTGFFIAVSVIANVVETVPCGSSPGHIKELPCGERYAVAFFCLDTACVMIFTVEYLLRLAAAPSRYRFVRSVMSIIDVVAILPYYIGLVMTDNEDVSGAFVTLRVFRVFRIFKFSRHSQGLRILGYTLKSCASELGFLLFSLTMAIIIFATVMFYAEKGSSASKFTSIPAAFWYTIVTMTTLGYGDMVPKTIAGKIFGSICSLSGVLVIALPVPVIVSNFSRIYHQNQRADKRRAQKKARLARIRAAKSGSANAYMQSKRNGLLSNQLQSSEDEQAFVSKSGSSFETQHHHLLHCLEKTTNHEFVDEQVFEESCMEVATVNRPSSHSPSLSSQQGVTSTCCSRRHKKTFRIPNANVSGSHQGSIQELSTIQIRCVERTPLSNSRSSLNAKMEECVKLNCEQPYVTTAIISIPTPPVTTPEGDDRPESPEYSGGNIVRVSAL
Test: TEVC of X. laevis oocytes expressing Kv4.2
Type: cell-based
Excerpt: Kv2.1 mutants were constructed using the QuickChange Multi Site-Directed Mutagenesis Kit (Stratagene, La Jolla, Calif.). Mutant Kv2.1 genes (in the pGA1 oocyte expression vector for oocyte expression) were sequenced in their entirety to confirm appropriate mutations and check for inadvertent mutations, and then subcloned into a wild-type pGA1 backbone. For oocyte expression, Kv3.4 was in pBF1, Kv4.2 was in pRAT. cRNA transcripts were produced from SacII-linearized (Kv2.1), Mlullinearized (Kv3.4) and Not1-linearized (Kv4.2) DNA templates using the T3 (Kv2.1), SP6 (Kv3.4) and T7 (Kv4.2) mMessage mMachine kits (Ambion, Austin, Tex.). cRNA was quantified by spectrophotometry and its size integrity verified by gel electophoresis. Defolliculated stage V and VI Xenopus laevis oocytes (purchased from Nasco, Grand Island, N.Y.) were injected with 5 ng of cRNA encoding Kv2.1, Kv3.4 or Kv4.2. Chinese Hamster Ovary (CHO) cells were transfected with 0.25 μg Kv2.1 cDNA, 2 μg blank plasmid and 2 μg Green fluorescent Protein in pBOB using Supetfect transfection reagent (Qiagen) 24 hours before whole-cell voltage clamp studies.
Whole-cell two-electrode voltage-clamp (TEVC) recordings were performed on X laevis oocytes expressing cloned Kv2.1, Kv3.4 or Kv4.2 using a Warner OC-725C amplifier and pClamp9 (Axon Instruments, Foster City, Calif.) software. Oocytes were bathed in a small-volume Warner oocyte bath and viewed with a Fisher dissection microscope. Bath solution for whole-cell oocyte recordings was (in mM): 96 NaCl, 4 KCl, 0.7 MgCl2, 1 CaCl2, 10 HEPES (pH 7.4); whole-cell oocyte TEVC pipettes were of 0.2-2 M resistance when filled with 3 M KCl. Experiments were performed 24-48 hours after cRNA injection. For assessment of current-voltage relationships in the absence or presence of dabco derivatives, oocytes were held at −80 mV, stepped for 2 seconds at voltages between −80 mV and +60 mV in 20 mV steps (Kv2.1) or between −80 and +50 mV in 10 mV steps (Kv3.4), then held for 500 ms at −40 mV before returning to the holding potential. […]

c1cc(C[N+]23CCN(CC2)CC3)ccc1C[N+]12CCN(CC1)CC2 [JC638.2α, α,α′-[bis(4-aza-1-azoniabicyclo[2.2.2]octanyl)]p-xylene]
block of Kv4.2 (0.5 mM): 38%

C(CCCC[N+]12CCN(CC1)CC2)CCC[N+]12CCN(CC1)CC2 [TG27, 1,8-[bis(4-aza-1-azoniabicyclo[2.2.2]octanyl)]octane]
block of Kv4.2 (1 mM): 3%

CCCCCCCCCCCC[N+]12CCN(CC1)CC2 [JE188, 1-aza-4-azonia-4-dodecylbicyclo[2.2.2]octane]
block of Kv4.2 (100 μM): 3%

Source: patent US8143254B2, “Methods for modulating ion channels” (Cornell Research Foundation, Inc., priority 2005, dated 2012)
